According to patent publication US6642392B1 (priority 1997, dated 2003):
Read-outs that look alike come from different tables or passages of the source.

Assays:
Assay type in all cases: in vivo
Puccinia recondita = assay: Test B: wheat leaf rust, preventive spray on wheat seedlings; details: for Test B disease control rating: wheat leaf rust; for Test B disease control rating (100 = 100% disease control, 0 = no disease control): wheat seedlings sprayed to run-off, inoculated the following day, rating relative to controls, unmarked compounds (standard test rate)
Method in brief: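 Wheat seedlings were sprayed to run-off with compound (3% acetone, 250 ppm Trem 014), then inoculated with P. recondita spores the next day. They were held 24 h saturated at 20 °C, then 6 days at 20 °C. Ratings are 0–100% disease control versus controls.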

Pyricularia oryzae = details: for Test C disease control rating: rice blast; for Test C disease control rating (100 = 100% disease control, 0 = no disease control): rice seedlings sprayed to run-off, inoculated the following day, rating relative to controls, unmarked compounds (standard test rate)
Botrytis cinerea = assay: Test E: gray mold, preventive spray on cucumber seedlings; details: for Test E disease control rating: gray mold on cucumber; for Test E disease control rating (100 = 100% disease control, 0 = no disease control): cucumber seedlings sprayed to run-off, inoculated the following day, rating relative to controls, unmarked compounds (standard test rate)
Method in brief: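 Compounds in 3% acetone were suspended with 250 ppm Trem 014 surfactant and sprayed to run-off on cucumber seedlings. B. cinerea spores were inoculated next day, then 48 h saturated humidity at 20° C and 5 days at 20° C. Disease control rated 0–100% versus controls.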

[1] = system: Eiysiphe graminis f. sp. tritici; assay: Test A: wheat powdery mildew, preventive spray on wheat seedlings; details: for Test A disease control rating: wheat powdery mildew; for Test A disease control rating (100 = 100% disease control, 0 = no disease control): wheat seedlings sprayed to run-off, inoculated the following day, rating relative to controls, unmarked compounds (standard test rate)
Method in brief: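 Compounds (3% acetone, 250 ppm Trem 014) sprayed to run-off on wheat seedlings, inoculated next day with spore dust. Incubated 7 days at 20° C before disease rating, 0–100% control relative to untreated controls.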

Phytophthora infestans = details: for Test D disease control rating: tomato late blight; for Test D disease control rating (100 = 100% disease control, 0 = no disease control): tomato seedlings sprayed to run-off, inoculated the following day, rating relative to controls, unmarked compounds (standard test rate)
[2] = 100 = 100% disease control, 0 = no control, unmarked entries (standard test concentration)
[3] = 100 = 100% disease control, 0 = no control relative to controls, unmarked entries (standard test concentration)

Structure (SMILES) | Test B disease control rating (Puccinia recondita; [2]) | Test C disease control rating (Pyricularia oryzae; [2]) | Test E disease control rating (Botrytis cinerea; [2]) | Test A disease control rating [1, 3] | Test D disease control rating (Phytophthora infestans; [2]) | other results
CC(COc1cccc(C(F)(F)F)c1C#N)NC(=O)C(C#N)C(C)(C)C (mixture of isomers) [compound 47] | 0% | 53% | 0% | 0% | 52% | 
CC(C=Cc1ccc(F)cc1F)NC(=O)C(C#N)C(C)(C)C (mixture of isomers) [compound 309] |  |  |  |  |  | Test B disease control rating (100 = 100% disease control, 0 = no disease control) (Puccinia recondita): 0%; Test C disease control rating (100 = 100% disease control, 0 = no disease control) (Pyricularia oryzae): 91%; Test E disease control rating (100 = 100% disease control, 0 = no disease control) (Botrytis cinerea): 0%; Test A disease control rating (100 = 100% disease control, 0 = no disease control) [1]: 86%; Test D disease control rating (100 = 100% disease control, 0 = no disease control) (Phytophthora infestans): 23%
CC(COc1cc(F)ccc1OC(F)F)NC(=O)C(C#N)C(C)(C)C (mixture of isomers) [compound 292] |  |  |  |  |  | Test B disease control rating (100 = 100% disease control, 0 = no disease control) (Puccinia recondita): 0%; Test C disease control rating (100 = 100% disease control, 0 = no disease control) (Pyricularia oryzae): 99%; Test E disease control rating (100 = 100% disease control, 0 = no disease control) (Botrytis cinerea): 0%; Test A disease control rating (100 = 100% disease control, 0 = no disease control) [1]: 0%; Test D disease control rating (100 = 100% disease control, 0 = no disease control) (Phytophthora infestans): 46%
CCC1(C(=O)NC(C)COc2cccc(F)c2C#N)C(C)C1(Cl)Cl (mixture of isomers) [compound 130] | 0% | 32% | 0% | 0% | 2% | 
C=CC(C)(CC)C(C#N)C(=O)NC(C)COc1cc(F)ccc1F (mixture of isomers) [compound 296] |  |  |  |  |  | Test B disease control rating (100 = 100% disease control, 0 = no disease control) (Puccinia recondita): 0%; Test C disease control rating (100 = 100% disease control, 0 = no disease control) (Pyricularia oryzae): 100%; Test E disease control rating (100 = 100% disease control, 0 = no disease control) (Botrytis cinerea): 0%; Test A disease control rating (100 = 100% disease control, 0 = no disease control) [1]: 0%; Test D disease control rating (100 = 100% disease control, 0 = no disease control) (Phytophthora infestans): 24%
CCC1(C(=O)NCC=Cc2cc(Cl)ccc2Cl)C(C)C1(Cl)Cl (stereo not drawn) [compound 163] |  |  |  |  |  | Test B disease control rating (Puccinia recondita; tested at 40 ppm): 0%; Test C disease control rating (Pyricularia oryzae; tested at 40 ppm): 52%; Test E disease control rating (Botrytis cinerea; tested at 40 ppm): 0%; Test A disease control rating ([1]; tested at 40 ppm): 0%; Test D disease control rating (Phytophthora infestans; tested at 40 ppm): 42%
CCC1(C(=O)NC(C)COc2ccccc2I)C(C)C1(Cl)Cl (mixture of isomers) [87a] |  |  |  |  |  | Test B disease control rating (Puccinia recondita; tested at 40 ppm): 0%; Test C disease control rating (Pyricularia oryzae; tested at 40 ppm): 74%; Test E disease control rating (Botrytis cinerea; tested at 40 ppm): 0%; Test A disease control rating ([1]; tested at 40 ppm): 0%; Test D disease control rating (Phytophthora infestans; tested at 40 ppm): 0%
CC(COc1cccc(F)c1)NC(=O)C(C#N)C(C)(C)C (mixture of isomers) [3a] | 0% | 94% | 55% | 85% | 0% | 
C[C@H](COc1ccccc1)NC(=O)C(C#N)C(C)(C)C (single isomer, unassigned) [1d] | 0% | 100% | 0% | 92% | 0% | 
C=CCC(C#N)C(=O)NC(C)C(Oc1cc(F)ccc1F)c1ccccc1 (mixture of isomers) [compound 283] |  |  |  |  |  | Test B disease control rating (100 = 100% disease control, 0 = no disease control) (Puccinia recondita): 0%; Test C disease control rating (100 = 100% disease control, 0 = no disease control) (Pyricularia oryzae): 99%; Test E disease control rating (100 = 100% disease control, 0 = no disease control) (Botrytis cinerea): 0%; Test A disease control rating (100 = 100% disease control, 0 = no disease control) [1]: 0%; Test D disease control rating (100 = 100% disease control, 0 = no disease control) (Phytophthora infestans): 0%
CCC1(C(=O)NC(C)COc2ccc(F)c(F)c2)C(C)C1(Cl)Cl (stereo not drawn) [compound 108] |  |  |  |  |  | Test B disease control rating (Puccinia recondita; tested at 40 ppm): 0%; Test C disease control rating (Pyricularia oryzae; tested at 40 ppm): 94%; Test E disease control rating (Botrytis cinerea; tested at 40 ppm): 0%; Test A disease control rating ([1]; tested at 40 ppm): 57%; Test D disease control rating (Phytophthora infestans; tested at 40 ppm): 0%
CCC1(C(=O)NC(C)COc2cccc(Cl)c2C#N)C(C)C1(Cl)Cl (mixture of isomers) [compound 131] | 0% | 53% | 0% | 0% | 52% | 
CCC1(C(=O)NC(C)COc2c(F)cccc2F)C(C)C1(Cl)Cl (stereo not drawn) [105b] |  |  |  |  |  | Test B disease control rating (Puccinia recondita; tested at 40 ppm): 0%; Test C disease control rating (Pyricularia oryzae; tested at 40 ppm): 74%; Test E disease control rating (Botrytis cinerea; tested at 40 ppm): 0%; Test A disease control rating ([1]; tested at 40 ppm): 21%; Test D disease control rating (Phytophthora infestans; tested at 40 ppm): 0%
CCC1(C(=O)NC(C)C=Cc2cc(F)ccc2F)C(C)C1(Cl)Cl (single isomer, unassigned) [267a] |  |  |  |  |  | Test B disease control rating (100 = 100% disease control, 0 = no disease control) (Puccinia recondita): 0%; Test C disease control rating (100 = 100% disease control, 0 = no disease control) (Pyricularia oryzae): 97%; Test E disease control rating (100 = 100% disease control, 0 = no disease control) (Botrytis cinerea): 55%; Test A disease control rating (100 = 100% disease control, 0 = no disease control) [1]: 78%; Test D disease control rating (100 = 100% disease control, 0 = no disease control) (Phytophthora infestans): 0%
CCC1(C(=O)NC(C)COn2c(C)cc(C)c2C#N)C(C)C1(Cl)Cl (mixture of isomers) [compound 136] | 0% | 78% | 0% | 34% | 0% | 
CC(COc1c(Cl)cccc1C#N)NC(=O)C(C#N)C(C)C(C)(C)C (mixture of isomers) [compound 281] |  |  |  |  |  | Test B disease control rating (100 = 100% disease control, 0 = no disease control) (Puccinia recondita): 0%; Test C disease control rating (100 = 100% disease control, 0 = no disease control) (Pyricularia oryzae): 53%; Test E disease control rating (100 = 100% disease control, 0 = no disease control) (Botrytis cinerea): 0%; Test A disease control rating (100 = 100% disease control, 0 = no disease control) [1]: 56%; Test D disease control rating (100 = 100% disease control, 0 = no disease control) (Phytophthora infestans): 0%
Cc1c(Br)cc(C#N)n1OCC(C)NC(=O)C(C#N)C(C)(C)C (mixture of isomers) [compound 50] | 28% | 53% | 0% | 86% | 57% | 
C[C@H](COc1ccc(Br)cc1)NC(=O)C(C#N)C(C)(C)C (single isomer, unassigned) [10d] | 0% | 74% | 45% | 77% | 35% | 
CCC1(C(=O)NC(C)COc2c(Br)cc(F)cc2Br)C(C)C1(Cl)Cl (stereo not drawn) [compound 250] |  |  |  |  |  | Test B disease control rating (100 = 100% disease control, 0 = no disease control) (Puccinia recondita): 0%; Test C disease control rating (100 = 100% disease control, 0 = no disease control) (Pyricularia oryzae): 52%; Test E disease control rating (100 = 100% disease control, 0 = no disease control) (Botrytis cinerea): 85%; Test A disease control rating (100 = 100% disease control, 0 = no disease control) [1]: 0%; Test D disease control rating (100 = 100% disease control, 0 = no disease control) (Phytophthora infestans): 0%
CC(COc1c(F)cccc1C#N)NC(=O)C(C#N)C(C)C(C)(C)C (mixture of isomers) [compound 67] | 0% | 0% | 0% | 0% | 92% | 
C[C@H](COc1ccc(Cl)cc1F)NC(=O)C(C#N)C(C)(C)C (single isomer, unassigned) [36b] | 27% | 100% | 0% | 62% | 80% | 
CC(COc1cccc(F)c1C#N)NC(=O)C(C#N)C(C)C(C)(C)C (mixture of isomers) [compound 63] | 0% | 0% | 0% | 0% | 2% | 
CC(COc1ccccc1)NC(=O)C(C#N)C(C)(C)C (single isomer, unassigned) [1c] | 85% | 73% | 0% | 60% | 16% | 
CC(COc1cccc(C(F)(F)F)c1C#N)NC(=O)C(C#N)C(C)C(C)(C)C (mixture of isomers) [compound 66] | 0% | 0% | 0% | 0% | 69% | 
CC(COc1cc(F)ccc1Cl)NC(=O)C(C#N)C(C)C(C)(C)C (mixture of isomers) [compound 194] | 0% | 100% | 0% | 0% | 0% | 
C[C@H](COc1cc(Cl)cc(Cl)c1)NC(=O)C(C#N)C(C)(C)C (single isomer, unassigned) [35a] | 0% | 74% | 0% | 0% | 80% | 
C=CCc1ccccc1OCC(C)NC(=O)C1(CC)C(C)C1(Cl)Cl (mixture of isomers) [101a] | 0% | 0% | 22% | 0% | 46% | 
